Experimental data as given in US20230233555A1 (AbbVie Inc., priority 2022, published 2023).
“Also recorded” adds a separate entry of the source.

Experiments:
[1] = system: CYP1A2, 2B6, 2C8, 2C9, 2C18, 2C19, 2J2, FMO1, FMO3, OATP1B1, OATP1B3, OCT1; test: In vitro substrate assessment, other enzymes and transporters; assay type: in vitro ADME
pregnant rats = test: Oral embryo-fetal development studies in rats
CYP2D6 = CYP2D6 (Homo sapiens, UniProt P10635); test: In vitro metabolism / substrate assessment, CYP2D6; assay type: in vitro ADME
Chain of CYP2D6 (P10635 whole entry): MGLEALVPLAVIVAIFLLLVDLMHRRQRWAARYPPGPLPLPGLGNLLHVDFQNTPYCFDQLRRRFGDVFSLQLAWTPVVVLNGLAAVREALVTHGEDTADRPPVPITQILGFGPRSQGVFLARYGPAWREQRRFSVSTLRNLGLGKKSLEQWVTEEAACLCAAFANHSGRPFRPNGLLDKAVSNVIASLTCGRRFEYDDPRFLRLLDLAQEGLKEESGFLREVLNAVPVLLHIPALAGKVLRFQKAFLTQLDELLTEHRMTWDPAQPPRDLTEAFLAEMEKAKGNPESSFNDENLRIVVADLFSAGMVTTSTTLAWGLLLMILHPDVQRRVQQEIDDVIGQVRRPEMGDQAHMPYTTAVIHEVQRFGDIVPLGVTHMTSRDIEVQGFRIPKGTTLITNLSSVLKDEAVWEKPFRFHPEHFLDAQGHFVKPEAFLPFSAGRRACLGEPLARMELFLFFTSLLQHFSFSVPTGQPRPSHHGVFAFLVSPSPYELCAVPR

P-gp, BCRP = test: In vitro transporter substrate assessment, P-gp and BCRP; assay type: in vitro ADME
[2] = system: human peripheral blood lymphocytes; test: In vitro chromosome aberration assay; assay type: cell-based
[3] = system: patients with moderately to severely active rheumatoid arthritis, inadequate response to MTX; test: Trial RA-II (NCT02706951); assay type: in vivo, human; conditions: RA-II through Week 14; 30 mg monotherapy
Text: The primary endpoint was the proportion of patients who achieved an ACR20 response at Week 14. Key secondary endpoints included DAS28-CRP ≤3.2, DAS28-CRP <2.6, and change from baseline in HAQ-DI at Week 14.

[4] = system: patients with rheumatoid arthritis; test: Rheumatoid arthritis Phase 3 trials, integrated datasets (RA-I to RA-V)
Text: Exposure adjusted incidence rates were adjusted by trial for all the adverse events reported in this section.
Patients 18 years of age and older were eligible to participate. The presence of at least 6 tender and 6 swollen joints and evidence of systemic inflammation based on elevation of hsCRP was required at baseline.

QTc interval = test: Cardiac electrophysiology (QTc); assay type: in vivo, human
[5] = Hepatic impairment pharmacokinetic study; assay type: in vivo, human
Sprague-Dawley rats = test: Carcinogenicity study in Sprague-Dawley rats; assay type: in vivo, rat; conditions: for Exposure multiple at top dose without tumorigenicity: AUC basis
Solubility in water = assay type: physicochemical; conditions: aqueous buffer, pH range of 2 to 9 at 37° C.
Text: The strength of upadacitinib is based on anhydrous upadacitinib. […]

[6] = system: P-gp, BCRP, BSEP, OATP1B1, OATP1B3, OCT1, OCT2, OAT1, OAT3, MATE1, MATE2K; test: In vitro transporter inhibition; assay type: in vitro ADME; conditions: clinically relevant concentrations
[7] = Model-estimated and predicted upadacitinib Cmax and AUCss in UC patients with co-administration of strong CYP3A4 inhibitors; design: species or system human; conditions: for Predicted Median Cmax in UC Patients with Strong CYP3A4 inhibitors based on results from M13-401: model-estimated value multiplied by 1.7; for Predicted AUCss in UC Patients with Strong CYP3A4 inhibitors based on results from M13-401, Median: model-estimated value multiplied by 1.75
Text: (§1) The data from Study M13-401 are provided in Table 38 and Table 39, which show the expected increase in Cmax and AUCss, respectively, in patients with UC across all dose levels with co-administration of CYP3A4 inhibitors.

pregnant rabbits = test: Oral embryo-fetal developmental study in rabbits; assay type: in vivo
[8] = system: patients with moderately to severely active rheumatoid arthritis, naive to MTX; test: Trial RA-I (NCT02706873); assay type: in vivo, human; conditions: RA-I through Week 24; 30 mg
Protocol: The primary endpoint was the proportion of patients who achieved an ACR50 response at Week 12. Key secondary endpoints included disease activity score (DAS28-CRP) ≤3.2 at Week 12, DAS28-CRP <2.6 at Week 24, change from baseline in HAQ-DI at Week 12, and change from baseline in van der Heijde-modified total Sharp Score (mTSS) at Week 24.
Inhibition of progression of structural joint damage was assessed using the modified Total Sharp Score (mTSS) and its components, the erosion score and joint space narrowing score, at Week 26 in Trial RA-IV and Week 24 in Trial RA-I. The proportion of patients with no radiographic progression (mTSS change from baseline […]) was also assessed.

[9] = Drug interaction studies: effect of co-administered drugs on upadacitinib pharmacokinetics (incl. Study M13-401); assay type: in vivo, human
Text: as §1

[10] = human, in vivo
[11] = system: CYP1A2, CYP2B6, CYP2C8, CYP2C9, CYP2C19, CYP2D6, CYP3A4; test: In vitro CYP inhibition; assay type: in vitro ADME; conditions: clinically relevant concentrations
male and female rats = test: Fertility study in rats; assay type: in vivo, rat
[12] = Human radiolabeled [14C]-upadacitinib study (metabolism and excretion); assay type: in vivo
[13] = 12-month exposure dataset (RA-I, II, III, V), 30 mg
[14] = MTX-controlled RA-I and RA-II, 12/14 weeks, 30 mg monotherapy
[15] = RA-III and RA-V placebo-controlled, 12 weeks, 30 mg
[16] = e.g. ketoconazole, Study M13-401
[17] = ketoconazole 400 mg QD, upadacitinib IR formulation
[18] = rifampicin 600 mg QD for 8 days

## CC[C@@H]1CN(C(=O)NCC(F)(F)F)C[C@@H]1c1cnc2cnc3[nH]ccc3n12 [upadacitinib, (3S,4R)-3-Ethyl-4-(3H-imidazo[1,2-a]pyrrolo[2,3-e]pyrazin-8-yl)-N-(2,2,2-trifluoroethyl)pyrrolidine-1-carboxamide hydrate (2:1)]
[1]
  Substrate of CYP1A2, 2B6, 2C8, 2C9, 2C18, 2C19, 2J2, FMO1, FMO3, OATP1B1, OATP1B3 or OCT1: not a substrate
Pregnant rats; AUC basis, 75 mg/kg/day
  Exposure multiple with additional skeletal malformations and decreased fetal body weights, no maternal toxicity: approximately 48 times the MRHD of 30 mg
Pregnant rats; GD 6 to 17, AUC basis, 5 mg/kg/day and higher
  Exposure multiple with teratogenicity (misshapen humerus, bent scapula): ≥ 1.0 times the MRHD of 30 mg
Pregnant rats; oral
  Exposure multiple with developmental toxicity (skeletal malformations, decreased fetal body weights): ≥ 2 times the 15 mg dose
Pregnant rats; oral, organogenesis
  Exposure multiple with no developmental toxicity: approximately 0.3 times the 15 mg dose
CYP2D6
  Substrate of / metabolised by CYP2D6: substrate; also recorded: potential minor contribution from CYP2D6
P-gp, BCRP
  Substrate of P-gp and BCRP: substrate
[2]
  Genotoxicity, chromosome aberration: tested negatively
[3]
  Venous thrombosis, number of patients: 0 patients
[4]; [13]
  Opportunistic infections (excluding tuberculosis), number of patients: 15 patients
  Opportunistic infections (excluding tuberculosis), rate: 1.4 per 100 patient-years
[4]; 12-month exposure dataset, 30 mg
  Active tuberculosis, number of patients: 1 patient
[4]; [14]
  Opportunistic infections (excluding tuberculosis), number of patients: 4 patients
  Opportunistic infections (excluding tuberculosis), rate: 3.2 per 100 patient-years
[4]; RA MTX-controlled period, 30 mg monotherapy
  Active tuberculosis cases: no active cases
[4]; RA patients, controlled period
  Change in mean IgG and IgM levels from baseline: small decreases
[4]; RA patients, up to Week 36
  Change in mean ALC from baseline: small, transient increase
[4]; RA placebo-controlled period, 30 mg
  Active tuberculosis cases: no active cases
[4]; [15]
  Opportunistic infections (excluding tuberculosis), number of patients: 6 patients
  Opportunistic infections (excluding tuberculosis), rate: 7.1 per 100 patient-years
QTc interval; 2.5 times the mean exposure of the 45 mg once daily dose
  Effect on QTc interval: no clinically relevant effect
QTc interval; 6 times the mean maximum exposure of the 15 mg once daily dose
  Effect on QTc interval: no clinically relevant effect
[5]; mild hepatic impairment
  Cmax vs normal liver function: unchanged
[5]; mild hepatic impairment (Child-Pugh A)
  AUC (AUCinf) higher vs normal hepatic function: 28%
[5]; moderate hepatic impairment
  Cmax higher vs normal liver function: 43%
[5]; moderate hepatic impairment (Child-Pugh B)
  AUC (AUCinf) higher vs normal hepatic function: 24%
Sprague-Dawley rats; female rats, 20 mg/kg/day
  Exposure multiple at top dose without tumorigenicity: ~6.0 times the MRHD of 30 mg
Sprague-Dawley rats; male rats, 15 mg/kg/day
  Exposure multiple at top dose without tumorigenicity: approximately 2.4 times the MRHD of 30 mg
Sprague-Dawley rats; up to 101 weeks, oral up to 15 (male) or 20 (female) mg/kg/day
  Tumorigenicity: No evidence of tumorigenicity
Solubility in water
  solubility: ≤ 38 mg/mL
[6]
  Inhibition of transporters (P-gp, BCRP, OATP1B1, OATP1B3, OCT1, OCT2, OAT1, OAT3, MATE1, MATE2K): does not inhibit; also recorded: no in vivo relevant inhibition
[7]; 7.5 mg treatment group
  Predicted Median Cmax in UC Patients with Strong CYP3A4 inhibitors based on results from M13-401: 0.0343 µg/mL
  Predicted AUCss in UC Patients with Strong CYP3A4 inhibitors based on results from M13-401, Median: 0.282 µg·h/mL
[7]; 15 mg treatment group
  Predicted Median Cmax in UC Patients with Strong CYP3A4 inhibitors based on results from M13-401: 0.0702 µg/mL
  Predicted AUCss in UC Patients with Strong CYP3A4 inhibitors based on results from M13-401, Median: 0.599 µg·h/mL
[7]; 30 mg treatment group
  Predicted Median Cmax in UC Patients with Strong CYP3A4 inhibitors based on results from M13-401: 0.133 µg/mL
  Predicted AUCss in UC Patients with Strong CYP3A4 inhibitors based on results from M13-401, Median: 1.143 µg·h/mL
[7]; 45 mg treatment group
  Predicted Median Cmax in UC Patients with Strong CYP3A4 inhibitors based on results from M13-401: 0.206 µg/mL
  Predicted AUCss in UC Patients with Strong CYP3A4 inhibitors based on results from M13-401, Median: 1.74 µg·h/mL
Pregnant rabbits
  Exposure multiple with developmental toxicity (cardiovascular malformations, post-implantation loss, decreased fetal body weights): ≥ 17 times the 15 mg dose
Pregnant rabbits; organogenesis
  Exposure multiple with no developmental toxicity: ~2.5 times the 15 mg dose
[8]
  Arterial thrombosis, number of patients: 1 patient
  Venous thrombosis, number of patients: 1 patient
[9]; co-administration with methotrexate
  Upadacitinib exposure with methotrexate: no effect
[9]; concomitant administration
  Upadacitinib plasma exposure with strong CYP2D6 inhibitors, OATP1B inhibitors, MTX, pH modifying medications or statins: no effect
[9]; [16]
  Upadacitinib AUC (AUCinf) increase with strong CYP3A4 inhibitor: 75%
  Upadacitinib Cmax increase with strong CYP3A4 inhibitor: 70%
[9]; ketoconazole 400 mg QD
  Upadacitinib half-life with ketoconazole: no effect on half-life
[9]; [17]
  Upadacitinib AUC increase with ketoconazole: 1.8 fold
  Upadacitinib Cmax increase with ketoconazole: 1.7 fold
[9]; [18]
  Upadacitinib AUC decrease with rifampicin: 60%
  Upadacitinib Cmax decrease with rifampicin: 50%
[10]
  AUCinf increase with high-fat/high-calorie meal: 29%
  Accumulation after multiple once-daily administrations: minimal accumulation
  Cmax increase with high-fat/high-calorie meal: 39%
  Contribution of renal secretion to elimination: ≤ 25%
  Dose proportionality of plasma exposures: proportional to dose
  Time to steady-state plasma concentrations: ≤ 4 days
[11]
  Inhibition (or induction) of CYP1A2, 2B6, 2C8, 2C9, 2C19, 2D6, 3A4: does not inhibit or induce; also recorded: no in vivo relevant inhibition
Male and female rats; 5 mg/kg/day, AUC basis
  Exposure multiple with viable embryos unaffected: approximately 1.0 times the MRHD of 30 mg
Male and female rats; 25 mg/kg/day, AUC basis
  Exposure multiple with adverse effect on maintenance of pregnancy: approximately 13 times the MRHD of 30 mg
Male and female rats; 75 mg/kg/day, AUC basis
  Exposure multiple with adverse effect on maintenance of pregnancy: ~48 times the MRHD of 30 mg
Male and female rats; female rats, 75 mg/kg/day, AUC basis
  Exposure multiple without effect on fertility: ~48 times the MRHD of 30 mg
Male and female rats; females 5 mg/kg/day mated to males at the same dose
  Number of viable embryos: unaffected
Male and female rats; male rats, 50 mg/kg/day, AUC basis
  Exposure multiple without effect on fertility: approximately 24 times the MRHD of 30 mg
Male and female rats; oral 25 and 75 mg/kg/day
  Maintenance of pregnancy (post-implantation losses, viable embryos per litter): adversely affected
Male and female rats; oral up to 50 mg/kg/day males, 75 mg/kg/day females
  Fertility: no effect on fertility
[12]; human radiolabeled study
  Unchanged upadacitinib share of total radioactivity in plasma: 79%
[12]; in vivo
  Active metabolites: No active metabolites
